Experimental data taken from patent US20240174690A1, “ANNULATED 2-AMINO-3-CYANO THIOPHENES AND DERIVATIVES FOR THE TREATMENT OF CANCER” (BOEHRINGER INGELHEIM INTERNATIONAL GMBH, priority 2021, published 2024).
pIC50: −log10 of the molar value.

What was measured:
LOVO cells = test: LOVO CTG proliferation assay (120 h) (CRC, G13D); type: cell-based; conditions: Homo sapiens, CTG 120 h
Method in brief: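 IC50 comes from a four-parameter fit of CellTiter-Glo viability, expressed as RLU relative to DMSO wells. Compound exposure lasted 120 h in LOVO cells seeded the day before at 1000 cells/well in DMEM with 10% fetal calf serum.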

SAS cells = test: SAS CTG proliferation assay (120 h) (HNSCC, wt amplified); type: cell-based
Method in brief: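 Viability measured by CellTiter-Glo luminescence, normalized to DMSO wells, after 120 h compound treatment of SAS cells. Cells grown in DMEM:F12 plus 10% FCS at 300 cells per well, dosed the day after seeding. Four-parameter fit gives IC50.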

[1] = Metabolic (microsomal) stability assay, human liver microsomes (HLM); type: in vitro ADME; conditions: predicted clearance as percent of liver blood flow, 1 μM
Method in brief: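 LC-MS/MS tracked parent disappearance at 0, 5, 15, 30 and 60 min in NADPH-initiated incubations with 1 mg/mL human microsomal protein and 1 μM compound at 37°C, pH 7.5. First-order fits gave intrinsic clearance, which was scaled up and reported as % QH. NADPH-free controls were also run.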

[2] = test system: KRAS G12C-dependent Ba/F3 cells; test: Ba/F3 proliferation assay, KRAS G12C; type: cell-based; conditions: Mus musculus, BaF3, 72 h, AlamarBlue
Method in brief: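 Proliferation of mutant-KRAS-driven Ba/F3 cells cultured without IL-3 is followed with AlamarBlue after compound addition. Curves are fitted from duplicate wells.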

NCI-H2122 cells = test: NCI-H2122 CTG proliferation assay (120 h) (NSCLC, G12C); type: cell-based; conditions: Homo sapiens
Method in brief: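 Proliferation was read by CellTiter-Glo luminescence after 120 h of compound exposure, starting one day after seeding 200 NCI-H2122 (G12C) cells per well in RPMI/10% FCS. RLU relative to DMSO wells gave percent viability, and four-parameter nonlinear regression gave IC50.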

| pIC50 (LOVO cells) | HLM QH [1] | pIC50 [2] | pIC50 (NCI-H2122 cells) | Compound | pIC50 (SAS cells) |
| --- | --- | --- | --- | --- | --- |
| 6.91 | 43% | 7.60 | 6.18 | C[C@H](Oc1cc(-n2cc(Cn3ccnc3)nn2)nc(-c2noc3c2CCC[C@@]32CCCc3sc(N)c(C#N)c32)n1)[C@@H]1CCCN1C [II-113] | 6.42 |
| 6.85 | 34% | 7.80 | 6.17 | COC(=O)c1ccc(-c2cc(O[C@@H](C)[C@@H]3CCCN3C)nc(-c3noc4c3CCC[C@@]43CCCc4sc(N)c(C#N)c43)n2)o1 [II-114] | 7.55 |
| 8.10 | 75% | 8.22 | 5.95 | C[C@H](Oc1cc(-n2ccncc2=O)nc(-c2noc3c2CCC[C@@]32CCCc3sc(N)c(C#N)c32)n1)[C@@H]1CCCN1C [II-116] | 5.70 |
| 7.24 | <24% | 8.15 | 7.33 | C[C@H](Oc1cc(-c2ccn(C[C@@H](C)O)n2)nc(-c2noc3c2CCC[C@@]32CCCc3sc(N)c(C#N)c32)n1)[C@@H]1CCCN1C [II-117] | 7.66 |
| 6.53 | 25% | 7.60 | 6.00 | C[C@H](Oc1cc(-n2cc(C3CC3)nn2)nc(-c2noc3c2CCC[C@@]32CCCc3sc(N)c(C#N)c32)n1)[C@@H]1CCCN1C [II-118] | 6.03 |
| 6.82 | <24% | 8.10 | 6.60 | C[C@H](Oc1cc(-n2ccc(-c3ccccn3)n2)nc(-c2noc3c2CCC[C@@]32CCCc3sc(N)c(C#N)c32)n1)[C@@H]1CCCN1C [II-119] | 7.41 |
| 6.40 | 47% | 7.57 | 5.96 | C[C@H](Oc1cc(-n2ccnc2)nc(-c2noc3c2CCC[C@@]32CCCc3sc(N)c(C#N)c32)n1)[C@@H]1C[C@@H](F)CN1C [II-120] | 6.31 |
| 6.89 | 39% | 7.89 | 6.24 | COCc1cn(-c2cc(O[C@@H](C)[C@@H]3CCCN3C)nc(-c3noc4c3CCC[C@@]43CCCc4sc(N)c(C#N)c43)n2)nn1 [II-121] | 6.25 |
| 6.74 | 35% | 7.68 | 6.02 | CNC(=O)c1cn(-c2cc(O[C@@H](C)[C@@H]3CCCN3C)nc(-c3noc4c3CCC[C@@]43CCCc4sc(N)c(C#N)c43)n2)nn1 [II-122] | 6.05 |
| 7.14 | 28% | 7.82 | 6.06 | C[C@H](Oc1cc(-n2cc(-c3cccnc3)nn2)nc(-c2noc3c2CCC[C@@]32CCCc3sc(N)c(C#N)c32)n1)[C@@H]1CCCN1C [II-123] | 6.95 |
| 6.89 | 37% | 8.05 | 6.05 | C[C@H](Oc1cc(-n2cc(Cn3cncn3)nn2)nc(-c2noc3c2CCC[C@@]32CCCc3sc(N)c(C#N)c32)n1)[C@@H]1CCCN1C [II-124] | 7.17 |
